In US5409933A, “Quinoline derivatives and processes for preparing the same” (priority 1993, dated 1995):
Where a name gives a salt, the structure may show the parent alone. Read-outs that look alike come from different tables or passages of the source.

Legend:
[1] = test system: P. mirabilis; experiment: Treatment Effect on the Systemic Infection; type: in vivo, NMRI mice; details: Proteus mirabilis, in Mus musculus, 240 h
Procedure: (§1) 10 fold of the pathogens which lead to 100% lethality were injected intraperitoneally to male and female NMRI mice weighing 18 to 20 g. Immediately and 4 hours after injection, the dose of test compounds, which was determined by two-fold serial dilution method, was administered orally or subcutaneously to the mice, and on the 10th day, the effect was evaluated in terms of ED50 calculated from the number of survived mice by the probit analysis.

[2] = test system: S. aureus 17740; experiment: Treatment Effect on the Systemic Infection; type: in vivo, NMRI mice; details: 240 h
Procedure: as §1

[3] = test system: Enterobacter cloacae 1321E; experiment: In Vitro Anti-Bacterial Activity Test (MIC, agar dilution); type: cell-based; details: Enterobacter cloacae 1321E, Muller-Hinton agar, 37° C., 18 hours
Procedure, shortened: (§2)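 Ciprofloxacin was the control antibacterial in this Muller-Hinton agar dilution test. Cultures of 10^7 C.F.U./ml grew for 18 hours at 37° C., and inhibition of growth set the MIC.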

[4] = test system: Enterobacter cloacae P99; experiment: as above; type: cell-based
Procedure, shortened: (§3)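 Agar dilution on Muller-Hinton agar; strains inoculated at 10^7 C.F.U./ml, incubated at 37° C. for 18 hours, then scored for visible growth. MIC taken as the lowest concentration preventing growth; ciprofloxacin served as control agent.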

[5] = test system: Escherichia coli 078; experiment: as above; type: cell-based
Procedure, shortened: as §2

[6] = test system: Escherichia coli 1507E; experiment: as above; type: cell-based; details: Muller-Hinton agar, 37° C.
Procedure, shortened: as §2

[7] = test system: Escherichia coli DC0; experiment: as above; type: cell-based; details: Muller-Hinton agar, 37° C., 18 hours
Procedure, shortened: as §2

[8] = test system: Escherichia coli DC2; experiment: as above; type: cell-based
Procedure, shortened: as §2

[9] = test system: Escherichia coli TEM; experiment: as above; type: cell-based; details: Muller-Hinton agar, 37° C.
Procedure, shortened: as §3

[10] = test system: Klebsiella aerogenes 1522E; experiment: as above; type: cell-based; details: Klebsiella aerogenes 1522E, Muller-Hinton agar, 37° C., 18 hours
Procedure, shortened: as §2

[11] = test system: Klebsiella oxytoca 1082E; experiment: as above; type: cell-based; details: Klebsiella oxytoca 1082E, Muller-Hinton agar, 37° C., 18 hours
Procedure, shortened: as §2

[12] = test system: Pseudomonas aeruginosa 1592E; experiment: as above; type: cell-based; details: Muller-Hinton agar, 37° C., 18 hours
Procedure, shortened: as §2

[13] = test system: Pseudomonas aeruginosa 1771M; experiment: as above; type: cell-based; details: Muller-Hinton agar, 37° C.
Procedure, shortened: as §2

[14] = test system: Pseudomonas aeruginosa 1771; experiment: as above; type: cell-based; details: Pseudomonas aeruginosa 1771, Muller-Hinton agar, 37° C., 18 hours
Procedure, shortened: as §2

[15] = test system: Pseudomonas aeruginosa 9027; experiment: as above; type: cell-based; details: Muller-Hinton agar, 37° C., 18 hours
Procedure, shortened: as §2

[16] = test system: Salmonella typhimurium; experiment: as above; type: cell-based; details: Salmonella typhimurium, Muller-Hinton agar, 37° C., 18 hours
Procedure, shortened: as §2

[17] = test system: Staphylococcus aureus 285; experiment: as above; type: cell-based; details: Staphylococcus aureus 285, Muller-Hinton agar, 37° C., 18 hours
Procedure, shortened: as §2

[18] = test system: Staphylococcus aureus 503; experiment: as above; type: cell-based; details: Staphylococcus aureus 503, Muller-Hinton agar, 37° C., 18 hours
Procedure, shortened: as §2

[19] = test system: Staphylococcus aureus SG511; experiment: as above; type: cell-based; details: Staphylococcus aureus SG511, Muller-Hinton agar, 37° C., 18 hours
Procedure, shortened: as §2

[20] = test system: Streptococcus faecium MD8b; experiment: as above; type: cell-based; details: Muller-Hinton agar, 37° C., 18 hours
Procedure, shortened: as §2

[21] = test system: Streptococcus pyogenes 308A; experiment: as above; type: cell-based; details: Muller-Hinton agar, 37° C., 18 hours
Procedure, shortened: as §2

[22] = test system: Streptococcus pyogenes 77A; experiment: as above; type: cell-based; details: Streptococcus pyogenes 77A, Muller-Hinton agar, 37° C., 18 hours
Procedure, shortened: as §2

[23] = Acute Toxicity Test; details: mouse, in vivo, ICR mice, 14th day
Procedure: Test compounds were administered to ICR mice weighing 20 to 25 g. On 14th day, LD50 was calculated from the number of survived mice by the probit analysis.

[24] = P. mirabilis, oral, immediately and 4 hours after infection, survival on 10th day, read-out: ED50 Oral Administration
[25] = sc, P. mirabilis, subcutaneous, immediately and 4 hours after infection, survival on 10th day, read-out: ED50 Subcutaneous Injection
[26] = Enterobacter cloacae, P99, 18 h
[27] = Escherichia coli 078, Muller-Hinton agar, 37° C., 18 hours, read-out: MIC
[28] = Klebsiella aerogenes, 1522E, 18 h, read-out: MIC
[29] = Pseudomonas aeruginosa, 1771M, 18 h
[30] = Salmonella enterica, read-out: MIC
[31] = Staphylococcus aureus, 285, 18 h, read-out: MIC
[32] = Enterococcus faecium, read-out: MIC

| Molecule | ED50 [1, 24] | MIC ([3]; read-out: MIC) | MIC [4, 26] | MIC ([6]; Escherichia coli, 1507E, 18 h) | MIC ([7]; read-out: MIC) | MIC ([8]; Escherichia coli, DC2, 18 h) | MIC ([9]; Escherichia coli, 18 h) | MIC [10, 28] | MIC ([11]; read-out: MIC) | MIC ([12]; read-out: MIC) | MIC [13, 29] | MIC ([14]; read-out: MIC) | MIC ([15]; read-out: MIC) | MIC [16, 30] | MIC [17, 31] | MIC ([18]; read-out: MIC) | MIC ([19]; read-out: MIC) | MIC [20, 32] | MIC ([21]; read-out: MIC) | MIC ([22]; read-out: MIC) | other results |
| --- | --- | --- | --- | --- | --- | --- | --- | --- | --- | --- | --- | --- | --- | --- | --- | --- | --- | --- | --- | --- | --- |
| O=C(O)c1cn(C2CC2)c2cc(N3CCNCC3)c(F)cc2c1=O [Ciprofloxacin, reference compound] | – | – | – | – | – | – | – | – | – | – | – | – | – | – | – | – | – | – | – | – | ED50 ([1]; po, read-out: ED50 Oral Administration): 0.82 mg/kg; ED50 ([1]; sc, read-out: ED50 Subcutaneous Injection): 0.16 mg/kg; ED50 ([2]; Staphylococcus aureus, 17740, in Mus musculus, po, read-out: ED50 Oral Administration): > 200 mg/kg |
| CC1COc2c(N3CCN(C)CC3)c(F)cc3c(=O)c(C(=O)O)cn1c23 (stereo not shown) [Ofloxacin, reference compound] | 1.64 mg/kg | – | – | – | – | – | – | – | – | – | – | – | – | – | – | – | – | – | – | – | ED50 [1, 25]: 0.33 mg/kg; ED50 ([2]; Staphylococcus aureus, in Mus musculus, S. aureus 17740, oral, immediately and 4 hours after infection, survival on 10th day, read-out: ED50 Oral Administration): > 200 mg/kg; ED50 ([2]; Staphylococcus aureus, in Mus musculus, sc, S. aureus 17740, subcutaneous, immediately and 4 hours after infection, survival on 10th day, read-out: ED50 Subcutaneous Injection): 200 mg/kg |
| O=C(C[N+](=O)[O-])c1cn(C2CC2)c2c(Cl)c(N3CC4=C(CNC4)C3)c(F)cc2c1=O [Example 34, 1-cyclopropyl-6-fluoro-8-chloro-7-(3,7-diazabicyclo[3.3.0]oct-1,5-en-3-yl)-3-(2-nitroacetyl)-1,4-dihydro-4-oxoquinoline hydrochloride] | 0.41 mg/kg | 0.049 µg/mL | 0.007 µg/mL | 0.007 µg/mL | 0.195 µg/mL | 0.098 µg/mL | 0.007 µg/mL | 0.013 µg/mL | < 0.002 µg/mL | 0.391 µg/mL | 0.098 µg/mL | 0.195 µg/mL | 0.391 µg/mL | 0.004 µg/mL | 0.049 µg/mL | 0.098 µg/mL | 0.025 µg/mL | 0.098 µg/mL | 0.391 µg/mL | 0.098 µg/mL | MIC [5, 27]: < 0.002 µg/mL; ED50 [1, 25]: 0.16 mg/kg; LD50 at 336 h ([23]; ip, read-out: Acute Toxicity LD50, Peritomeo Injection): 620 mg/kg; LD50 at 336 h ([23]; oral, read-out: Acute Toxicity LD50, Oral Administration): 4000 mg/kg |
| 1-cyclopropyl-6-fluoro-8-chloro-7-(7-amino-5-azaspiro[2.4]hept-5-yl)-3-(2- nitroacetyl)-1,4-dihydro-4-oxoquinoline hydrochloride [Example 35] | – | – | – | – | – | – | – | – | – | – | – | – | – | – | – | – | – | – | – | – | MIC [3]: 0.025 µg/mL; MIC ([4]; Enterobacter cloacae P99, Muller-Hinton agar, 37° C., 18 hours): 0.025 µg/mL; MIC ([5]; Escherichia coli 078, Muller-Hinton agar, 37° C., 18 hours): 0.007 µg/mL; MIC ([6]; 18 hours): 0.007 µg/mL; MIC [7]: 0.098 µg/mL; MIC ([8]; Escherichia coli DC2, Muller-Hinton agar, 37° C., 18 hours): 0.049 µg/mL; MIC ([9]; 18 hours): 0.013 µg/mL; MIC [10]: 0.013 µg/mL; MIC [11]: < 0.002 µg/mL; MIC [12]: 0.781 µg/mL; MIC ([13]; 18 hours): 0.098 µg/mL; MIC [14]: 0.391 µg/mL; MIC [15]: 0.781 µg/mL; MIC [16]: 0.013 µg/mL; MIC [17]: 0.025 µg/mL; MIC [18]: 0.013 µg/mL; MIC [19]: 0.025 µg/mL; MIC [20]: 0.098 µg/mL; MIC [21]: 0.195 µg/mL; MIC [22]: 0.098 µg/mL |
| CCOC(=O)CC(=O)c1cn(C2CC2)c2cc(N3CCNCC3)c(F)cc2c1=O [Example 19, 1-cyclopropyl-6-fluoro-7-(piperazin-1-yl)-3-(2-ethoxycarbonylacetyl)-1,4-dihydro-4-oxoquinoline hydrochloride] | – | 0.013 µg/mL | 0.013 µg/mL | 0.013 µg/mL | 0.391 µg/mL | 0.391 µg/mL | 0.195 µg/mL | 0.049 µg/mL | 0.013 µg/mL | 1.56 µg/mL | 1.56 µg/mL | 0.781 µg/mL | 0.781 µg/mL | 0.391 µg/mL | 1.56 µg/mL | 0.781 µg/mL | 0.391 µg/mL | 0.781 µg/mL | 3.12 µg/mL | 1.56 µg/mL | MIC [5, 27]: 0.004 µg/mL |
| CCOC(=O)C(C(=O)OCC)C(=O)c1cn(C2CC2)c2c(Cl)c(N3CCC(NC)C3)c(F)cc2c1=O (stereo not shown) [Example 57, 1-cyclopropyl-6-fluoro-8-chloro-7-(3-methylaminopyrrolidin-1-yl)-3-(2,2-diethoxycarbonylacetyl)-1,4-dihydro-4-oxoquinoline hydrochloride] | – | 0.049 µg/mL | 0.013 µg/mL | 0.013 µg/mL | 0.049 µg/mL | 0.025 µg/mL | 0.013 µg/mL | 0.049 µg/mL | 0.049 µg/mL | 0.781 µg/mL | 0.195 µg/mL | 0.391 µg/mL | 1.56 µg/mL | 0.013 µg/mL | 0.195 µg/mL | 0.195 µg/mL | 0.049 µg/mL | 0.098 µg/mL | 0.781 µg/mL | 0.195 µg/mL | MIC ([5]; Escherichia coli, 078, 18 h): 0.007 µg/mL |
